Counter-ions that a name gives are not always drawn. Like-named read-outs stand apart in the source and are kept apart here.

The target of series [1] is T1, rat 5-HT2A serotonin receptor (Rattus norvegicus, UniProt P14842). Put plainly: biochemical.
Procedure: (§2) The non-specific binding was measured in the presence of 10 μM methysergide. The assay was conducted in Tris-HCl 50 mM buffer (pH 7.4 at 37° C.), with incubation for 2 hours at 37° C. The test compounds were dissolved in DMSO, then diluted in buffer (final DMSO concentration 0.01%) and plated on 96-well plates. Methysergide and/or ketanserin were used as reference compounds.
(§3) Binding is initiated by addition of 200 μl of homogenate (450 μg/ml protein content); after incubation, the membranes were filtered on glass-fibre filters (GF/B) (Unifilter, Packard) treated with 0.3% polyethyleneimine. Then the filters were washed with buffer solution and stove-dried for 30 minutes at 45° C. The scintillation liquid was added to each well, and 10 hours later the radioactivity was measured for 1 minute using a TopCount (Packard). The test compounds were tested in duplicate at 8 concentrations (from 10^-12 to 10^-5 M).
(§4) The IC50 values for each compound were calculated using non-linear regression analysis (GraphPad PRISM software) and the inhibition constants Ki were determined using the equation described by Cheng Y. and Prussof W. H. (1973) “Relationship between the inhibition constant (Ki) and the concentration of inhibitor which causes 50 percent inhibition (150) of an enzyme reaction.” Biochem. Pharmacol. 22: 3099-3108.
Series [2] deals with T2, human serotonin 5-HT2A receptor (Homo sapiens, UniProt P28223).
T2 construct: expressed in transfected cells
Put plainly: Test B: binding to the human serotonin 5-HT2A receptor. Conditions: human recombinant cells, six concentrations; read-out: (h)5-HT2a (pKi) (converted). From the text: (§1) These tests measured the percentage inhibition induced by the compounds of formula (I) according to the present invention at six different concentrations, from which the pKi values of the compounds in relation to the individual receptors were obtained.
Binding to the human serotonin 5-HT2A receptor was effected by the standard methodology described in Bonhaus D. W., Bach C., De Souza A., Salazar F. H., Matsuoka B. D., Zuppan P., Chan H. W., Eglen R. M. (1995) “The pharmacology and distribution of human 5-hydroxytryptamine2B (5-HT2B) receptor gene products: comparison with 5-HT2A and 5-HT2C receptors.” Br. J. Pharmacol. 115(4): 622-628; and Saucier C., Albert P. R. (1997) “Identification of an endogenous 5-hydroxytryptamine2A receptor in NIH-3T3 cells: agonist-induced down-regulation involves decreases in receptor RNA and number.” J. Neurochem. 68(5): 1998-2011. The test compounds were tested in duplicate at a single concentration of 1 μM and then at six concentrations to find the pKi values of the individual compounds.

The target of series [3] is T3, serotonin 5-HT2C receptor (Homo sapiens, UniProt P28335).
T3 construct: expressed in transfected cells; host or cells: CHO-K1
T3 sequence (P28335 33-458): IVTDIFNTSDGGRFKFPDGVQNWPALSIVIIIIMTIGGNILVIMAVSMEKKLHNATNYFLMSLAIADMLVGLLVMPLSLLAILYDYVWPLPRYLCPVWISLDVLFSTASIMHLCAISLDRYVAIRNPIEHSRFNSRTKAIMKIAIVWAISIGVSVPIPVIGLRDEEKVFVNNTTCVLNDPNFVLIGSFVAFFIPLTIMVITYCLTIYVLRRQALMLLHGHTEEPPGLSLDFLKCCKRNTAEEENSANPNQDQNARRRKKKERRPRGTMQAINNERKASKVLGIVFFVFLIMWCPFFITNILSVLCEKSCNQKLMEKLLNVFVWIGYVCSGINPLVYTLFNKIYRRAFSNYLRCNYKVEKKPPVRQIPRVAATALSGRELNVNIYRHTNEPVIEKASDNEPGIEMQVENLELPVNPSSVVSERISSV
Put plainly: Test B: binding to the serotonin 5-HT2C receptor. The note with it: human recombinant cells (CHO-K1), six concentrations; read-out: (h)5-HT2c (pKi) (converted).
Excerpt: as §1
Binding to the serotonin 5-HT2C receptor was effected using the standard methodology described in: Wolf W. A. and Schutz J. S. (1997) “The serotonin 5-HT2C receptor is a prominent serotonin receptor in basal ganglia: evidence from functional studies on serotonin-mediated phosphoinositide hydrolysis.” J. Neurochem. 69: 1449-1458. CHO-K1 recombinant cells for expression of the human enzyme were used as starting material, and SB242084 as reference compound. The test compounds were tested in duplicate at a single concentration of 1 μM and then at six concentrations to find the pKi values of the individual compounds.

Series [4] deals with T1, rat 5-HT2A serotonin receptor.
Procedure: as §2, §3, §4

T1 sequence (P14842 whole entry): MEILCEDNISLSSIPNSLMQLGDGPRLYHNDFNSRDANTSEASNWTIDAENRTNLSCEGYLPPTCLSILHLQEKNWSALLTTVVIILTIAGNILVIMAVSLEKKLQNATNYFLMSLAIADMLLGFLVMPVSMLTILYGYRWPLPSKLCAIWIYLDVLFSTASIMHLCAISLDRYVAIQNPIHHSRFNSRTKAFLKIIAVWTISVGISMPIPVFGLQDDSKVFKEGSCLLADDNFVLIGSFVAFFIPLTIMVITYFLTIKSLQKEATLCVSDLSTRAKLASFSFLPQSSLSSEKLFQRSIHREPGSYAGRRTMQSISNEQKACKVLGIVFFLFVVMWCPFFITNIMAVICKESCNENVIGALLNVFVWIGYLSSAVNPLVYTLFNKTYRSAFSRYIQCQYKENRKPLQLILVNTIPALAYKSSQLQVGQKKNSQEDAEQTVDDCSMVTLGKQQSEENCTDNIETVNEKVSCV
T2 sequence (P28223 whole entry): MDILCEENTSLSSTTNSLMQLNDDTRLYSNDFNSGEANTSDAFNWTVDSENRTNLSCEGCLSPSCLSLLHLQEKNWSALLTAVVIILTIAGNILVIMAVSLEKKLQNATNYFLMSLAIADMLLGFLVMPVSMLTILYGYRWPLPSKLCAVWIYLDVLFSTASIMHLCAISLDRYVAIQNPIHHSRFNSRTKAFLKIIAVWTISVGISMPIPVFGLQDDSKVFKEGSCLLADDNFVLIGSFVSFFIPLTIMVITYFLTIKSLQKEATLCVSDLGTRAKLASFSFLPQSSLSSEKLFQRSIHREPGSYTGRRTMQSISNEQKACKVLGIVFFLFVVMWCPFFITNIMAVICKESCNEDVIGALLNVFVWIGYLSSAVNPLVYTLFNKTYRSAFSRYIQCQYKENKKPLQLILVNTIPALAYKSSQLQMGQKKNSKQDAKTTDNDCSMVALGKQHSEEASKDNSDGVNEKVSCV

For the compound `Cn1nc2ccccc2c1C(=O)N1CCC(CNCCc2ccc(F)cc2F)CC1` [Compound 9, 2-(2,4-Difluorophenyl)-N-({1-[(2-methyl-2H-indazole-3-yl)carbonyl]piperidin-4-yl}methyl)ethanamine hydrochloride], the Ki in series [1] was 0.631 µM.

One may read the melting point as the temperature, or range, at which the solid turns liquid. For `Cn1nc2ccccc2c1C(=O)NCCCN1CCC(c2ccc(F)cc2)CC1` [Compound 20, N-{3-[4-(4-fluorophenyl)piperidin-1-yl]propyl}-2-methyl-2H-indazole-3-carboxamide], the melting point lay within 136 to 140 °C.

As for `COCCn1nc2ccccc2c1C(=O)NCC1CCN(CCc2ccc(F)cc2)CC1.Cl` [Compound 7, N-({1-[2-(4-Fluorophenyl)ethyl]piperidin-4-yl}methyl)-2-(2-methoxyethyl)-2H-indazole-3-carboxamide hydrochloride], the melting point lay within 193 to 194 °C. In series [1], this compound had a Ki of 0.0912 µM.

Regarding `COc1ccc2nn(C)c(C(=O)NCC3CCN(CCc4ccc(O)cc4)CC3)c2c1` [Compound 4, N-({1-[2-(4-Hydroxyphenyl)ethyl]piperidin-4-yl}methyl)-5-methoxy-2-methyl-2H-indazole-3-carboxamide], the melting point was 218 to 219 °C (dec.). Also, the Ki in series [1] was 0.0479 µM.

`Cl.Cn1nc2ccccc2c1C(=O)N1CCC(CNCCc2ccc(F)cc2)CC1` [Compound 10, 2-(4-Fluorophenyl)-N-({1-[(2-methyl-2H-indazol-3-yl)carbonyl)piperidin-4-yl}methyl]ethanamine hydrochloride] registered a melting point of 198 to 199 °C. Besides, the Ki in series [1] was 0.263 µM.

For `COc1ccc(CCN2CCC(CNC(=O)c3c4ccccc4nn3C)CC2)cc1.Cl` [Compound 5, N-({1-[2-(4-Methoxyphenyl)ethyl]piperidin-4-yl}methyl)-2-methyl-2H-indazole-3-carboxamide hydrochloride], the melting point is 80 °C (dec.). The Ki in series [1] is 1.58 µM.

`Cn1nc2ccccc2c1C(=O)NCC1CCN(CCc2ccc(C(F)(F)F)cc2)CC1` [Compound 17, 2-methyl-N-[(1-{2-[4-(trifluoromethyl)phenyl]ethyl}piperidin-4-yl)methyl]-2H-indazole-3-carboxamide]: the melting point fell in the range of 174 to 176 °C.

The compound `Cl.Cn1nc2ccccc2c1C(=O)NCC1CCN(CCc2ccc(F)cc2)CC1` [Compound 8, N-({1-[2-(4-Fluorophenyl)ethyl]piperidin-4-yl}methyl)-2-methyl-2H-indazole-3-carboxamide hydrochloride] registered a melting point of 208 to 209 °C. Also, in series [2], the Ki is 0.00162 µM. In series [3], the Ki was 0.0537 µM. Further, in series [1], the Ki was 0.0158 µM.

Consider `Cn1nc2ccccc2c1C(=O)NC1CCN(CCCc2ccc(F)cc2)CC1` [Compound 22, N-{1-[3-(4-fluorophenyl)propyl]piperidin-4-yl}-2-methyl-2H-indazole-3-carboxamide], for which the melting point was 162 to 165 °C.

In turn, `Cn1nc2ccccc2c1C(=O)NC1CCN(Cc2ccccc2)CC1` [Compound 21, N-(1-benzylpiperidin-4-yl)-2-methyl-2H-indazole-3-carboxamide] had a melting point of 167 to 169 °C.

Compound “N,2-Dimethyl-N-{[1-(2-phenylethyl)piperidin-4-yl]methyl}-2H-indazole-3-carboxamide hydrochloride hemihydrate [Compound 2]” had a Ki in series [4] of 0.813 µM.

`Cl.Cn1nc2ccccc2c1C(=O)NC1CCN(CCc2ccc(F)cc2)CC1` showed a melting point of 224 to 228 °C.

Turning to `Cn1nc2ccccc2c1C(=O)NC1CCN(CCc2ccc(F)cc2)C1` (stereo not shown) [Compound 15, N-{1-[2-(4-fluorophenyl)ethyl]pyrrolidin-3-yl}-2-methyl-2H-indazole-3-carboxamide], the melting point was 117 to 119 °C.

For `Cn1nc2ccccc2c1C(=O)NCC1CCN(CCc2ccc(O)cc2)CC1` [Compound 3, N3-({1-[2-(4-Hydroxyphenyl)ethyl]hexahydro-4-pyridinyl}methyl-2-methyl-2H-3-indazolecarboxamide hydrochloride hydrate], the Ki in series [2] is 0.00209 µM; in series [3] it was 0.148 µM; in series [1], 0.0479 µM.

As for `Cn1nc2ccccc2c1C(=O)NCC1CCN(CCc2ccc(F)cc2F)CC1` [Compound 23, N-({1-[2-(2,4-difluorophenyl)ethyl]piperidin-4-yl}methyl)-2-methyl-2H-indazole-3-carboxamide], the melting point lay in the range of 122 to 126 °C.

For `Cn1nc2ccccc2c1C(=O)NCC1CCN(CCc2ccccc2)CC1` [Compound 1, 2-Methyl-N-{[1-(2-phenylethyl)piperidin-4-yl]methyl}-2H-indazole-3-carboxamide hydrochloride hydrate], the figures for the Ki in series [2], in series [3] and in series [1] were 0.00263 µM, 0.0891 µM and 0.0324 µM, respectively.

`Cn1nc2ccccc2c1C(=O)NC1CCN(CCc2ccccc2F)CC1` [Compound 18, N-{1-[2-(2-fluorophenyl)ethyl)piperidin-4-yl}-2-methyl-2H-indazole-3-carboxamide] displayed a melting point of 164 to 166 °C.

For the origin of these results see patent US8507528B2, “2-alkyl-indazole compounds for the treatment of certain cns-related disorders” (Aziende Chimiche Riunite Angelini Francesco A.C.R.A.F. …, priority 2006, dated 2013).
